From ChEMBL document CHEMBL1125348, “The first mechanism-based inactivators for angiotensin-converting enzyme” (J Med Chem, 1992)

Experiments:
Format in all cases: protein assay
[1] = system: N#CCC(=O)N[C@@H](Cc1ccccc1)C(=O)N[C@@H](Cc1ccccc1)C(=O)O; assay: Km for angiotensin I converting enzyme
[2] = target: T1, Angiotensin-converting enzyme (Homo sapiens, UniProt P12821+Q9BYF1); assay: First order rate constant for angiotensin I converting enzyme
[3] = target: T1, Angiotensin-converting enzyme; assay: Inhibition of hydrolysis of N-[3-(2-furyl)acryloyll-Phe-Gly-Gly7 by angiotensin I converting enzyme
[4] = target: T1, Angiotensin-converting enzyme; assay: kinact for angiotensin I converting enzyme

T1 sequence (P12821 whole entry, looked up): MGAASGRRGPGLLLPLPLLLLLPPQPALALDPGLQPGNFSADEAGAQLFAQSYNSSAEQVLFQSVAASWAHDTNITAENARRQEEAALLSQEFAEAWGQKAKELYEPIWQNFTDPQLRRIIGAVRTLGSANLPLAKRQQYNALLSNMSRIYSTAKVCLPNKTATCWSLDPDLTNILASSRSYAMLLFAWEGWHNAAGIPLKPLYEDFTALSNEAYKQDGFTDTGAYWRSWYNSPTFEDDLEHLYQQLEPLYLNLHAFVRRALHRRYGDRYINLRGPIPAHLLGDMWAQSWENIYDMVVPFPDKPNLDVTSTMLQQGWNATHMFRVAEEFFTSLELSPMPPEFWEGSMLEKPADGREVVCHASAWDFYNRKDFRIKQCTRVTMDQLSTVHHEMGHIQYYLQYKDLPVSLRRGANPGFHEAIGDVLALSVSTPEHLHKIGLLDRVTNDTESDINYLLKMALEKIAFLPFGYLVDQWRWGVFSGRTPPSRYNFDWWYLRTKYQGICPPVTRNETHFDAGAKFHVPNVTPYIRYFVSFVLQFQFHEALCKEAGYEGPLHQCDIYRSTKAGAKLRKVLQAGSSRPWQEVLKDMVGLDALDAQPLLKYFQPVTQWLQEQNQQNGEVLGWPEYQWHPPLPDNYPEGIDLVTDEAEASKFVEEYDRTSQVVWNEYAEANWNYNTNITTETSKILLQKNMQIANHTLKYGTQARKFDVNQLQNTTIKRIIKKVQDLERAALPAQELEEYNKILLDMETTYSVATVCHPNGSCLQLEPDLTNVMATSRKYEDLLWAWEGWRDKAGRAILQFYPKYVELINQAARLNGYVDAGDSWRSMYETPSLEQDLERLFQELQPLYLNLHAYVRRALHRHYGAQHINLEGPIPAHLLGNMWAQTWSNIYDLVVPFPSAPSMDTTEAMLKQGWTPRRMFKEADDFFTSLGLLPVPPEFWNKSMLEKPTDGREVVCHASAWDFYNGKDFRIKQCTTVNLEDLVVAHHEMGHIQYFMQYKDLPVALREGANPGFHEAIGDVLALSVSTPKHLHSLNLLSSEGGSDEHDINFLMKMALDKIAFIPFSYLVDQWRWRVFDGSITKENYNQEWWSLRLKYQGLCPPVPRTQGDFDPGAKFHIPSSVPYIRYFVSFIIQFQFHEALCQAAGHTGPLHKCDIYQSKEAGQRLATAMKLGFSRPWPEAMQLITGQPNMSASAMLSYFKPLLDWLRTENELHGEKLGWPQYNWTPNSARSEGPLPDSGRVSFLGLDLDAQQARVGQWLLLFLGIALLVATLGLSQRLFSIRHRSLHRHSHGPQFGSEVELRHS
T1 sequence (Q9BYF1 whole entry, looked up): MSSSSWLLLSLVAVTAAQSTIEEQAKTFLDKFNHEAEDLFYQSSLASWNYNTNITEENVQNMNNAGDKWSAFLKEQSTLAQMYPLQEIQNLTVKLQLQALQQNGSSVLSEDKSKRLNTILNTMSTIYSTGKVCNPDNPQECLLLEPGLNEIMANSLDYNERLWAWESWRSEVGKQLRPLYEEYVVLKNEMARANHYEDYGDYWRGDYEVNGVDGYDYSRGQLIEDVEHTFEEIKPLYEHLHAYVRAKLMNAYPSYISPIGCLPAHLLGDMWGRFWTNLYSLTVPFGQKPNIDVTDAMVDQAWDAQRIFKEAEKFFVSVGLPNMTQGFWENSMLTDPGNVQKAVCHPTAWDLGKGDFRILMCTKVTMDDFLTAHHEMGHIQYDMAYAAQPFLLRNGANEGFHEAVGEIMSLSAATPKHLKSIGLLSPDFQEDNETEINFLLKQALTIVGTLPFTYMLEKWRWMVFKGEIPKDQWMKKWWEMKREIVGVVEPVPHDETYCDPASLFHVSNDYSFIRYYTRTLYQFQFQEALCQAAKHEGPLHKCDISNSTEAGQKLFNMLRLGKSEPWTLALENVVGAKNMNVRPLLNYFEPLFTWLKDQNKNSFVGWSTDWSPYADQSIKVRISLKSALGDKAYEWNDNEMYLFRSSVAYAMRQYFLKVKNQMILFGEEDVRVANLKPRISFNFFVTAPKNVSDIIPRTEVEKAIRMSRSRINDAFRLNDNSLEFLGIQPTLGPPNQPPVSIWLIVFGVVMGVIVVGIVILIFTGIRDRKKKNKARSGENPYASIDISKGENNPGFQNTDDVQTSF
Chain of Angiotensin-converting enzyme (Homo sapiens) (Q9BYF1 whole entry, looked up): as above
Chain of Angiotensin-converting enzyme (Homo sapiens) (P12821 whole entry, looked up): as the sequence (P12821 whole entry, looked up) above

Row | Compound | Km [1] [mM] | k obs [2] [s⁻¹] | Ki [3] [µM] | K inact [4] [min⁻¹]
1 | Angiotensin-converting enzyme (Homo sapiens) (from UniProt P12821+Q9BYF1) | 10.5 |  |  | 
2 | CC(C)C[C@H](NC(=O)[C@H](C)NC(=O)CC#N)C(=O)O |  | 0.000501 |  | 
3 | N#CCC(=O)N[C@@H](Cc1ccccc1)C(=O)N[C@@H](Cc1ccccc1)C(=O)O |  | 0.000835 | 65 | 0.08
4 | C[C@H](NC(=O)CC#N)C(=O)N[C@@H](Cc1ccccc1)C(=O)O |  | 0.000251 |  | 
